This is an account of results in US20230374038A1, “MODULATORS OF CYSTIC FIBROSIS TRANSMEMBRANE CONDUCTANCE REGULATOR” (VERTEX PHARMACEUTICALS INCORPORATED, priority 2020, published 2023).

Molecules are shown by their SMILES.

Assay [1] has as its target T1, CFTR (Homo sapiens, UniProt P13569, DEL508-508).
T1 construct: endogenous in cells; host or cells: primary human bronchial epithelial cells, F508del/MF genotype
Nature of the assay: HBE Assay: Ussing chamber assay of CFTR-mediated short-circuit currents in F508del/MF-HBE cells with 1 μM Ivacaftor. It is filed as cell-based. The following applies: single fixed concentration of 10 μM, with 1 μM Ivacaftor, 20% human serum. Here is the method: Ussing chamber experiments were performed using human bronchial epithelial (HBE) cells derived from CF subjects heterozygous for F508del and a minimal function CFTR mutation (F508del/MF-HBE) and cultured as previously described (Neuberger T, Burton B, Clark H, Van Goor F Methods Mol Biol 2011:741:39-54). After four days the apical media was removed, and the cells were grown at an air liquid interface for >14 days prior to use.
(§1) To isolate the CFTR-mediated short-circuit (ISC) current, F508del/MF-HBE grown on Costar® Snapwell™ cell culture inserts were mounted in an Ussing chamber and the transepithelial ISC was measured under voltage-clamp recording conditions (Vhold=0 mV) at 37° C. The basolateral solution contained (in mM) 145 NaCl, 0.83 K2HIPO4, 3.3 KH2PO4, 1.2 MgCl2, 1.2 CaCl2), 10 Glucose, 10 HEPES (pH adjusted to 7.4 with NaOH) and the apical solution contained (in mM) 145 NaGluconate, 1.2 MgCl2, 1.2 CaCl2), 10 glucose, 10 HEPES (pH adjusted to 7.4 with NaOH) and 30 μM amiloride to block the epithelial sodium channel. Forskolin (20 μM) was added to the apical surface to activate CFTR, followed by apical addition of a CFTR inhibitor cocktail consisting of BPO, GlyH-101, and CFTR inhibitor 172 (each at 20 μM final assay concentration) to specifically isolate CFTR currents. The CFTR-mediated ISC (μA/cm^2) for each condition was determined from the peak forskolin response to the steady-state current following inhibition.
The activity of the CFTR corrector compounds on the CFTR-mediated ISC was determined in Ussing chamber studies as described above. The F508del/MF-HBE cell cultures were either incubated with the corrector compounds at a range of concentrations in combination with 1 μM Ivacaftor or were incubated with the corrector compounds at a single fixed concentration of 10 μM in combination with 1 μM Ivacaftor for 18-24 hours at 37° C. and in the presence of 20% human serum. The concentration of corrector compounds with 1 μM Ivacaftor during the 18-24 hours incubations was kept constant throughout the Ussing chamber measurement of the CFTR-mediated ISC to ensure compounds were present throughout the entire experiment.
as §1, with “K2HPO4,” for “K2HIPO4,”

Assay [2] concerns the target CFTR (Homo sapiens, UniProt P13569). Kind of assay: Membrane Potential Dye, Enteroid Assay B. It is filed as cell-based. The following applies: for EC50: read-out: Ent. B EC50. The essentials:
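Membrane-potential fluorescence read over 15 min after chloride-free stimulation (forskolin 10 μM, IBMX 100 μM, Compound III 300 nM), with CaCCinh-A01 and Chicago Sky Blue present. Enteroids had 18-24 h compound exposure at 37 °C; activity given as % of the triple-combination corrector/potentiator reference response.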

Chain of CFTR (Homo sapiens, UniProt P13569) (P13569 with tags, fused parts or gaps DEL508-508): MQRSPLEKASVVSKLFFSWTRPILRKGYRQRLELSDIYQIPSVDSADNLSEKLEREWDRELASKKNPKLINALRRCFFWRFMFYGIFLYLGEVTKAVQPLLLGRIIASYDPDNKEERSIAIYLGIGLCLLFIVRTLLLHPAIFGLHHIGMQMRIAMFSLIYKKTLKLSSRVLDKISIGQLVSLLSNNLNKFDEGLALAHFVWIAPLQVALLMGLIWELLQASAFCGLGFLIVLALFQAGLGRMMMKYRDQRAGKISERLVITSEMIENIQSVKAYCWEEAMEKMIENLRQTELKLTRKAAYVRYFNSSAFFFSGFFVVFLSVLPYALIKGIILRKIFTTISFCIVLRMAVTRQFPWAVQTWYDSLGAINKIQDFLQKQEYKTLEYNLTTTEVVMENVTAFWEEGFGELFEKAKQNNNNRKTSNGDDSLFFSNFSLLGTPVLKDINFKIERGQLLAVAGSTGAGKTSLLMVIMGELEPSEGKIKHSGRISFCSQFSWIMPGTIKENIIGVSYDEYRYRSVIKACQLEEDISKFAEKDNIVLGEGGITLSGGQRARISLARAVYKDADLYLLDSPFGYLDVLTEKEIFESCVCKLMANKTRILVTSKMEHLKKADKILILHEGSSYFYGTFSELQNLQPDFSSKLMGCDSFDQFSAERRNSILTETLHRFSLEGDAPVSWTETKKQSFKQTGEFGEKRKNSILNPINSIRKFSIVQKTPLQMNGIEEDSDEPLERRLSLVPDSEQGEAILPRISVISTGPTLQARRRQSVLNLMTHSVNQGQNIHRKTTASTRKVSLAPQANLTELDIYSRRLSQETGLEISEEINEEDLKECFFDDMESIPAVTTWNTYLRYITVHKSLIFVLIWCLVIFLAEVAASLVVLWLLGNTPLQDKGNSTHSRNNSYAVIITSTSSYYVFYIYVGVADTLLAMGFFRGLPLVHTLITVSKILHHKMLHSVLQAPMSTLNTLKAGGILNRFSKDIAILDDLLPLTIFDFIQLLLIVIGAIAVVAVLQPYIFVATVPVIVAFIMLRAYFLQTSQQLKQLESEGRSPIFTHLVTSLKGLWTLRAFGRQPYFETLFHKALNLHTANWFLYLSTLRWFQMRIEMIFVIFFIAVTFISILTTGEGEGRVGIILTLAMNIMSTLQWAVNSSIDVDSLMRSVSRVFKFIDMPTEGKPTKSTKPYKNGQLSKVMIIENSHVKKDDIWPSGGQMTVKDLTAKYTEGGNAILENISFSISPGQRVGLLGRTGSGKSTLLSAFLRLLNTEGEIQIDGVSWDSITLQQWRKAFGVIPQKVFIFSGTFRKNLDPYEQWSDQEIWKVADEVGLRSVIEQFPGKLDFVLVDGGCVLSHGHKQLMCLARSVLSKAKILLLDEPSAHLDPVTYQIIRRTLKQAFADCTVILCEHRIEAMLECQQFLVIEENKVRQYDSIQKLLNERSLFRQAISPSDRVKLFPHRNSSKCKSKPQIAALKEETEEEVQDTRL
T1 sequence (P13569 with tags, fused parts or gaps DEL508-508): as above

Turning to `COCCN(C)c1cnc(CN2C(=O)c3cccc(c3)S(=O)(=O)Nc3nc(c(C)c(-c4c(C)cccc4CC(C)C)n3)OC[C@H]2CC(C)(C)C)nc1` (atropisomer, axis not shown) [Compound 293], the “HBE Activity at 10 μM” value in assay [1] is “+++ (+++ is >600%)”. Regarding `CCc1c2nc(nc1-c1c(C)cccc1C)NS(=O)(=O)c1cccc(c1)C(=O)N(C1CC3(CC3)C1)[C@H](CC(C)(C)C)CO2` [Compound 188], in assay [2], the “Ent. B Max Activity” value was “+++ (+++ is >60%)” and the EC50 – broadly, the concentration giving half of the maximal effect – is < 1000 nM. With `COC(=O)NC1CC2(C1)CC(N1C(=O)c3cccc(c3)S(=O)(=O)Nc3nc(c(C)c(-c4c(C)cccc4C)n3)OC[C@H]1CC1(C(F)(F)F)CC1)C2` (stereo in doubt) [Compound 86], in assay [2], the “Ent. B Max Activity” value is given as “+++ (+++ is >60%)” and the EC50 was < 1000 nM. The matching figures for `Cc1cccc(C)c1-c1nc2nc(c1C)OC[C@@H](CC(C)(C)C)N(C1CC3(CC(CO)C3)C1)C(=O)c1cccc(c1)S(=O)(=O)N2` (stereo in doubt) [Compound 79]: “+++ (+++ is >60%)” and < 1000 nM. Consider `COC1CC(N2C(=O)c3cccc(c3)S(=O)(=O)Nc3nc(c(C)c(-c4c(C)cccc4C)n3)OC[C@H]2CC2(C(F)(F)F)CC2)C1` (stereo partly drawn) [Compound 100], for which, in assay [2], the “Ent. B Max Activity” value is “+++ (+++ is >60%)” and the EC50 was < 1000 nM. With `Cc1cccc(C)c1-c1nc2nc(c1C)OC[C@@H](CC(C)(C)O)N(C1CC3(CC3)C1)C(=O)c1cccc(c1)S(=O)(=O)N2` [Compound 108, (11R)-6-(2,6-Dimethylphenyl)-11-(2-hydroxy-2-methyl-propyl)-7-methyl-2,2-dioxo-12-spiro[2.3]hexan-5-yl-9-oxa-2λ^6-thia-3,5,12,19-tetrazatricyclo[12.3.1.14,8]nonadeca-1(18),4(19),5,7,14,16-hexaen-13-one], in assay [2], the “Ent. B Max Activity” value is “+++ (+++ is >60%)” and the EC50 lay within 1000 to 3000 nM. For `COC(=O)NC1CC2(C1)CC(N1C(=O)c3cccc(c3)S(=O)(=O)Nc3nc(c(C)c(-c4c(C)cccc4C)n3)OC[C@H]1CC(C)C)C2` (stereo in doubt) [Compound 68] the same measures were “+++ (+++ is >60%)” and < 1000 nM.

For `Cc1cccc(C)c1-c1nc2nc(c1F)OC[C@@H](CC(C)C)N(C1CC3(CCNCC3)C1)C(=O)c1cccc(c1)S(=O)(=O)N2` [Compound 186], in assay [2], the “Ent. B Max Activity” value is recorded as “++ (++ is 30-60%)” and the EC50 was < 1000 nM. The matching figures for `COc1c2nc(nc1-c1c(C)cccc1C)NS(=O)(=O)c1cccc(c1)C(=O)N[C@H](CC(C)C)CO2` [Compound 180]: “+++ (+++ is >60%)” and < 1000 nM. The matching figures for `Cc1cccc(C)c1-c1nc2nc(c1/C=C/C(C)(C)C)OC[C@@H](C)NC(=O)c1cccc(c1)S(=O)(=O)N2` [Compound 138]: “++ (++ is 30-60%)” and < 1000 nM. For `COc1ccccc1-c1c2nc(nc1-c1c(C)cccc1C)NS(=O)(=O)c1cccc(c1)C(=O)NC[C@@H](C)O2` [Compound 131] the same measures were “+++ (+++ is >60%)” and 1000 to 3000 nM. Regarding `COC(=O)N1CCC2(CC1)CC(N1C(=O)c3cccc(c3)S(=O)(=O)Nc3nc(c(C)c(-c4c(C)cccc4C)n3)OC[C@H]1CC(C)(C)C(F)(F)F)C2` [Compound 183], in assay [2], the “Ent. B Max Activity” value was “+++ (+++ is >60%)” and the EC50 is < 1000 nM. The matching figures for `Cc1cccc(C)c1-c1nc2nc(c1C)OC[C@@H](CC(C)C)N([C@H]1C[C@@H](OC(C)C)C1)C(=O)c1cccc(c1)S(=O)(=O)N2` (single isomer, unassigned) [Compound 47]: “++ (++ is 30-60%)” and < 1000 nM.

On to `Cc1cccc(C)c1-c1nc2nc(c1F)OC[C@@H](CC(C)C)N(C1CC3(CC3)C1)C(=O)c1cccc(c1)S(=O)(=O)N2` [Compound 175], for which, in assay [2], the “Ent. B Max Activity” value is “+++ (+++ is >60%)” and the EC50 is < 1000 nM.

In the case of `Cc1cccc(C)c1-c1nc2nc(c1C)OC[C@@H](CC(C)(C)C)N(C1CC3(CC(NC(=O)OC(C)C)C3)C1)C(=O)c1cccc(c1)S(=O)(=O)N2` (single isomer, unassigned) [Compound 62], in assay [2], the “Ent. B Max Activity” value was “+++ (+++ is >60%)” and the concentration for a half-maximal effect (EC50) is < 1000 nM. For `Cc1cccc(C)c1-c1nc2nc(c1C)OC[C@@H](CC1(C(F)(F)F)CC1)N(C1CC3(CC(CO)C3)C1)C(=O)c1cccc(c1)S(=O)(=O)N2` (stereo partly drawn) [Compound 81], in assay [2], the “Ent. B Max Activity” value is “+++ (+++ is >60%)” and the concentration for a half-maximal effect (EC50) was < 1000 nM. For `Cc1cccc(C)c1-c1nc2nc(c1C)OC[C@@H](CC1(C(F)(F)F)CC1)NC(=O)c1cccc(c1)S(=O)(=O)N2` [Compound 103] the same measures were “+++ (+++ is >60%)” and < 1000 nM.

On to `Cc1cccc(C)c1-c1nc2nc(c1CCC(C)(C)C)OC[C@@H](C)NC(=O)c1cccc(c1)S(=O)(=O)N2` [Compound 125, (11R)-7-(3,3-Dimethylbutyl)-6-(2,6-dimethylphenyl)-11-methyl-2,2-dioxo-9-oxa-2λ^6-thia-3,5,12,19-tetrazatricyclo[12.3.1.14,8]nonadeca-1(18),4(19),5,7,14,16-hexaen-13-one], for which, in assay [2], the “Ent. B Max Activity” value is listed as “++ (++ is 30-60%)” and the EC50 is < 1000 nM. The matching figures for `Cc1cccc(C)c1-c1nc2nc(c1CO)OC[C@@H](CC(C)C)N(C1CC3(CC3)C1)C(=O)c1cccc(c1)S(=O)(=O)N2` [Compound 170, (11R)-6-(2,6-Dimethylphenyl)-7-(hydroxymethyl)-11-isobutyl-2,2-dioxo-12-spiro[2.3]hexan-5-yl-9-oxa-2λ^6-thia-3,5,12,19-tetrazatricyclo[12.3.1.14,8]nonadeca-1(18),4(19),5,7,14,16-hexaen-13-one]: “++ (++ is 30-60%)” and < 1000 nM. The matching figures for `Cc1cccc(C)c1-c1nc2nc(c1C)OCCNC(=O)c1cccc(c1)S(=O)(=O)N2` [Compound 35, 6-(2,6-Dimethylphenyl)-7-methyl-9-oxa-2λ^6-thia-3,5,12,19-tetraazatricyclo[12.3.1.14,8]nonadeca-1(18),4,6,8(19),14,16-hexaene-2,2,13-trione]: “++ (++ is 30-60%)” and 3000 to 30000 nM. Turning to `Cc1cccc(C)c1-c1nc2nc(c1-c1ccncc1)O[C@H](C)CNC(=O)c1cccc(c1)S(=O)(=O)N2` [Compound 132], the “Ent. B Max Activity” value in assay [2] is “+ (+ is <30%)”.

Regarding `Cc1cccc(C)c1-c1nc2nc(c1C)OC(c1ccc(CC3(C(F)(F)F)CC3)cn1)CN(C)C(=O)c1cccc(c1)S(=O)(=O)N2` (stereo not drawn) [Compound 205], in assay [2], the “Ent. B Max Activity” value is reported as “+++ (+++ is >60%)” and the EC50 is < 1000 nM. For `Cc1cccc(C)c1-c1nc2nc(c1C)OC[C@@H](CC1(C(F)(F)F)CC1)N(C1CC3(CC(CO)C3)C1)C(=O)c1cccc(c1)S(=O)(=O)N2` (stereo partly drawn) [Compound 80] the same measures were “+++ (+++ is >60%)” and < 1000 nM. The matching figures for `Cc1cccc(C)c1-c1nc2nc(c1C)OC[C@@H](CC1(C(F)(F)F)CC1)N(C1CC3(CCN(C(=O)OC(C)C)CC3)C1)C(=O)c1cccc(c1)S(=O)(=O)N2` [Compound 76]: “+++ (+++ is >60%)” and < 1000 nM. The matching figures for `Cc1cccc(C)c1-c1nc2nc(c1C)OC[C@@H](CC(C)(C)C)N(C1CC3(CC3)C1)C(=O)c1cccc(c1)S(=O)(=O)N2` [Compound 101]: “+++ (+++ is >60%)” and < 1000 nM.
